Laboratory results: US20110275630A1, “ISO[…] INHIBITORS” (ABBOTT LABORATORIES, priority 2003, published 2011)

Target: T1, ROCK 2 (Homo sapiens, UniProt O75116)
T1 construct: ROCK1 (1.5 nM; Invitrogen) or ROCK2 (0.2 nM; Upstate) catalytic domains; purchased Upstate
Test: ROCK kinase activity assays ([33P]-ATP FlashPlate assay / HTRF assay)
Format: biochemical
Description: [33P]-ATP assay: ROCK activity is initially determined using a radioactive FlashPlate-based assay.

T1 sequence (O75116 92-354 limits assumed, species assumed): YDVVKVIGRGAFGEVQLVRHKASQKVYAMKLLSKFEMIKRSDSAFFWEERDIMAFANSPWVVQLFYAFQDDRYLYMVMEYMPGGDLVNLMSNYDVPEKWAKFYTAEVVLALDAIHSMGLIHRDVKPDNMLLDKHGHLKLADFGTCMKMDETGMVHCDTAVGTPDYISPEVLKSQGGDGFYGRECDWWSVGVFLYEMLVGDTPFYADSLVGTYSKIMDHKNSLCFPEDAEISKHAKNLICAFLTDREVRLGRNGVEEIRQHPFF

Row | SMILES | Ki
1 | O=C(Nc1ccc(-c2cccc3c2CNC3=O)cc1)c1cc2cc(F)ccc2[nH]1 [Example 131, 5-fluoro-N-[4-(1-oxo-2,3-dihydro-1H-isoindol-4-yl)phenyl]-1H-indole-2-carboxamide] | 32.6 nM
2 | O=C(Nc1ccc(-c2cccc3c2CNC3=O)cc1)c1cc2ccccc2o1 [Example 132, N-[4-(1-oxo-2,3-dihydro-1H-isoindol-4-yl)phenyl]-1-benzofuran-2-carboxamide] | 66.1 nM
3 | O=C(Nc1ccc(-c2cccc3c2CNC3=O)cc1)c1ccc2c(c1)OCCO2 [Example 134, N-[4-(1-oxo-2,3-dihydro-1H-isoindol-4-yl)phenyl]-2,3-dihydro-1,4-benzodioxine-6-carboxamide] | 331 nM
4 | O=C(Nc1ccc(-c2cccc3c2CNC3=O)cc1)c1cccc(S(=O)(=O)N2CCOCC2)c1 [Example 135, 3-(morpholin-4-ylsulfonyl)-N-[4-(1-oxo-2,3-dihydro-1H-isoindol-4-yl)phenyl]benzamide] | 8.75 nM
5 | O=C(Nc1ccc(-c2cccc3c2CNC3=O)cc1)c1ccc(N2CCOCC2)nc1 [Example 136, 6-(morpholin-4-yl)-N-[4-(1-oxo-2,3-dihydro-1H-isoindol-4-yl)phenyl]pyridine-3-carboxamide] | 201 nM
6 | NC1CCN(S(=O)(=O)c2cccc(C(=O)Nc3ccc(-c4cccc5c4CNC5=O)cc3)c2)CC1 [Example 137, 3-[(4-aminopiperidin-1-yl)sulfonyl]-N-[4-(1-oxo-2,3-dihydro-1H-isoindol-4-yl)phenyl]benzamide] | 12.8 nM
7 | O=C1NCc2c1cccc2-c1ccc(Nc2nc3ccc(Cl)cc3o2)cc1 [Example 139, 4-{4-[(6-chloro-1,3-benzoxazol-2-yl)amino]phenyl}-2,3-dihydro-1H-isoindol-1-one] | 153 nM
8 | O=C(Nc1ccc(-c2cccc3c2CNC3=O)cc1)c1cc2ccccc2[nH]1 [Example 140, N-[4-(1-oxo-2,3-dihydro-1H-isoindol-4-yl)phenyl]-1H-indole-2-carboxamide] | 27.4 nM
